Measurements published in the supplement of paper PMC4862054.
Values belong to the compound of their own block, whether it stands above or below them.

What was measured:
Details in all cases: 72 h
HDQ-P1 [1] = test system: HDQ-P1
How it was run: (§1)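 A 20 µl suspension of breast cancer cells was placed in 384-well plates that already contained compound at 5 concentrations in 10-fold steps across a compound-specific 10,000-fold range, and the plates were left for 72 h. CellTox Green fluorescence at 485/520 nm gave cell death, and CellTiter-Glo luminescence, read after 10 min at room temperature, gave viability. Each plate was normalised to 0.1 % DMSO and a positive kill control. EC50 was fitted from the curves and censored at the top concentration.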

CAL-51 [2] = test system: CAL-51
How it was run: as §1

HCC1143 [3] = test system: HCC1143
How it was run: as §1

MFM-223 [4] = test system: MFM-223
How it was run: as §1

MCF-10A [5] = test system: MCF-10A
How it was run: as §1

DU-4475 [6] = test system: DU-4475
How it was run: as §1

HCC1599 [7] = test system: HCC1599
How it was run: as §1

CAL-148 [8] = test system: CAL-148
How it was run: as §1

CAL-120 [9] = test system: CAL-120
How it was run: as §1

BT-474 [10] = test system: BT-474
How it was run: as §1

MDA-MB-468 [11] = test system: MDA-MB-468
How it was run: as §1

HCC1937 = test system: HCC1937
How it was run: as §1

Hs578T [12] = test system: Hs578T
How it was run: as §1

BT-549 [13] = test system: BT-549
How it was run: as §1

MDA-MB-453 [14] = test system: MDA-MB-453
How it was run: as §1

MDA-MB-436 [15] = test system: MDA-MB-436
How it was run: as §1

MDA-MB-231 [16] = test system: MDA-MB-231
How it was run: as §1

CAL-85-1 [17] = test system: CAL-85-1
How it was run: as §1

SK-BR-3 [18] = test system: SK-BR-3
How it was run: as §1

HDQ-P1 [19] = test system: HDQ-P1; remark: listed apart in the source
How it was run: (§2)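 To measure viability, fluorescence at 560/590 nm was read after 2.5 µl CellTiter-Blue had been added for 2 h at 37 °C. Cells from breast cancer lines had been seeded in 20 µl suspension onto 384-well plates pre-loaded with compound dissolved in 5 µl medium and kept for 72 h. EC50 comes from a fitted percent-inhibition dose-response curve censored at the highest concentration, after per-plate normalisation to vehicle and a positive kill control, Z'-factor checks, and removal of rows with zero drug sensitivity score.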

CAL-51 [20] = test system: CAL-51; remark: listed apart in the source
How it was run: as §2

DU-4475 [21] = test system: DU-4475; remark: listed apart in the source
How it was run: as §2

CAL-85-1 [22] = test system: CAL-85-1; remark: listed apart in the source
How it was run: as §2

HCC1143 [23] = test system: HCC1143; remark: listed apart in the source
How it was run: as §2

MFM-223 [24] = test system: MFM-223; remark: listed apart in the source
How it was run: as §2

HCC1599 [25] = test system: HCC1599; remark: listed apart in the source
How it was run: as §2

BT-474 [26] = test system: BT-474; remark: listed apart in the source
How it was run: as §2

MDA-MB-468 [27] = test system: MDA-MB-468; remark: listed apart in the source
How it was run: as §2

Hs578T [28] = test system: Hs578T; remark: listed apart in the source
How it was run: as §2

BT-549 [29] = test system: BT-549; remark: listed apart in the source
How it was run: as §2

MDA-MB-436 [30] = test system: MDA-MB-436; remark: listed apart in the source
How it was run: as §2

SK-BR-3 [31] = test system: SK-BR-3; remark: listed apart in the source
How it was run: as §2

HDQ-P1 [32] = test system: HDQ-P1; remark: listed apart in the source
Protocol: (§3)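 Drug sensitivity and resistance testing (DSRT) of breast cancer cell lines in 384-well plates, 5 concentrations in 10-fold dilutions over a compound-specific 10,000-fold range. After 72 h, cytotoxicity was read by CellTox Green fluorescence and viability by CellTiter-Glo luminescence (multiplexed), normalised to DMSO and benzethonium chloride controls. EC50 is the inflection point of the fitted dose-response curve (bottom asymptote free, so it can be relative for partial curves) and is censored at the highest tested concentration. Rows with DSS 0 (no meaningful response) were excluded.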

CAL-51 [33] = test system: CAL-51; remark: listed apart in the source
Protocol: as §3

HCC1143 [34] = test system: HCC1143; remark: listed apart in the source
Protocol: as §3

MFM-223 [35] = test system: MFM-223; remark: listed apart in the source
Protocol: as §3

MCF-10A [36] = test system: MCF-10A; remark: listed apart in the source
Protocol: as §3

DU-4475 [37] = test system: DU-4475; remark: listed apart in the source
Protocol: as §3

CAL-148 [38] = test system: CAL-148; remark: listed apart in the source
Protocol: as §3

CAL-120 [39] = test system: CAL-120; remark: listed apart in the source
Protocol: as §3

BT-474 [40] = test system: BT-474; remark: listed apart in the source
Protocol: as §3

Hs578T [41] = test system: Hs578T; remark: listed apart in the source
Protocol: as §3

BT-549 [42] = test system: BT-549; remark: listed apart in the source
Protocol: as §3

MDA-MB-453 [43] = test system: MDA-MB-453; remark: listed apart in the source
Protocol: as §3

MDA-MB-231 [44] = test system: MDA-MB-231; remark: listed apart in the source
Protocol: as §3

CAL-85-1 [45] = test system: CAL-85-1; remark: listed apart in the source
Protocol: as §3

HCC1599 [46] = test system: HCC1599; remark: listed apart in the source
Protocol: as §3

MDA-MB-468 [47] = test system: MDA-MB-468; remark: listed apart in the source
Protocol: as §3

MDA-MB-436 [48] = test system: MDA-MB-436; remark: listed apart in the source
Protocol: as §3

- EC50, CellTiter-Glo (HCC1143 [3]): 145 nM
- EC50, CellTiter-Glo (HCC1599 [7]): 28 nM
- EC50, CellTiter-Glo (BT-474 [10]): 43.4 nM
- EC50, CellTiter-Glo (MDA-MB-468 [11]): 93.2 nM
- EC50, CellTiter-Glo (HCC1937): 193 nM
- EC50, CellTiter-Glo (BT-549 [13]): 118 nM
- EC50, CellTiter-Glo (MDA-MB-453 [14]): 277 nM
- EC50, CellTiter-Glo (MDA-MB-436 [15]): 88.1 nM
- EC50, CellTiter-Glo (MDA-MB-231 [16]): 34.4 nM
- EC50, CellTiter-Glo (SK-BR-3 [18]): 57.6 nM
- EC50, CellTiter-Blue viability (HCC1143 [23]): 48.5 nM
- EC50, CellTiter-Blue viability (HCC1599 [25]): 98.1 nM
- EC50, CellTiter-Blue viability (BT-474 [26]): 846 nM
- EC50, CellTiter-Blue viability (MDA-MB-468 [27]): 105 nM
- EC50, CellTiter-Blue viability (BT-549 [29]): 111 nM
- EC50, CellTiter-Blue viability (MDA-MB-436 [30]): 695 nM
- EC50, CellTiter-Blue viability (SK-BR-3 [31]): 80.2 nM
SMILES: CN[C@@H]1C[C@H]2O[C@@](C)([C@@H]1OC)n1c3ccccc3c3c4c(c5c6ccccc6n2c5c31)C(=O)N[C@H]4O [UCN-01]
- EC50, CellTiter-Glo (HDQ-P1 [1]): 217 nM
- EC50, CellTiter-Glo (CAL-51 [2]): 77.5 nM
- EC50, CellTiter-Glo (MFM-223 [4]): 137 nM
- EC50, CellTiter-Glo (MCF-10A [5]): 45.7 nM
- EC50, CellTiter-Glo (DU-4475 [6]): 184 nM
- EC50, CellTiter-Glo (CAL-148 [8]): 1490 nM
- EC50, CellTiter-Glo (CAL-120 [9]): 43.6 nM
- EC50, CellTiter-Glo (Hs578T [12]): 36.8 nM
- EC50, CellTiter-Glo (CAL-85-1 [17]): 81.3 nM
- EC50, CellTiter-Blue viability (HDQ-P1 [19]): 59.7 nM
- EC50, CellTiter-Blue viability (CAL-51 [20]): 140 nM
- EC50, CellTiter-Blue viability (DU-4475 [21]): 212 nM
- EC50, CellTiter-Blue viability (CAL-85-1 [22]): 175 nM
- EC50, CellTiter-Blue viability (MFM-223 [24]): 355 nM
- EC50, CellTiter-Blue viability (Hs578T [28]): 30.6 nM
- EC50, CellTox Green (HDQ-P1 [32]): 34.3 nM
- EC50, CellTox Green (CAL-51 [33]): 63.9 nM
- EC50, CellTox Green (HCC1143 [34]): 114 nM
- EC50, CellTox Green (MFM-223 [35]): 46.3 nM
- EC50, CellTox Green (MCF-10A [36]): 130 nM
- EC50, CellTox Green (DU-4475 [37]): 128 nM
- EC50, CellTox Green (CAL-148 [38]): 6850 nM
- EC50, CellTox Green (CAL-120 [39]): 1580 nM
- EC50, CellTox Green (BT-474 [40]): 2470 nM
- EC50, CellTox Green (Hs578T [41]): 266 nM
- EC50, CellTox Green (BT-549 [42]): 220 nM
- EC50, CellTox Green (MDA-MB-453 [43]): 6000 nM
- EC50, CellTox Green (MDA-MB-231 [44]): 88.8 nM
- EC50, CellTox Green (CAL-85-1 [45]): 168 nM

- EC50, CellTiter-Glo (HCC1143 [3]): 23.5 nM
- EC50, CellTiter-Glo (HCC1599 [7]): 206 nM
- EC50, CellTiter-Glo (BT-474 [10]): 76.3 nM
- EC50, CellTiter-Glo (MDA-MB-468 [11]): 26.7 nM
- EC50, CellTiter-Glo (HCC1937): 29.5 nM
- EC50, CellTiter-Glo (BT-549 [13]): 26.3 nM
- EC50, CellTiter-Glo (MDA-MB-453 [14]): 12.6 nM
- EC50, CellTiter-Glo (MDA-MB-436 [15]): 42.9 nM
- EC50, CellTiter-Glo (MDA-MB-231 [16]): 119 nM
- EC50, CellTiter-Glo (SK-BR-3 [18]): 3.1 nM
- EC50, CellTiter-Blue viability (HCC1143 [23]): 41.8 nM
- EC50, CellTiter-Blue viability (HCC1599 [25]): 176 nM
- EC50, CellTiter-Blue viability (BT-474 [26]): 33.5 nM
- EC50, CellTiter-Blue viability (MDA-MB-468 [27]): 33.5 nM
- EC50, CellTiter-Blue viability (BT-549 [29]): 37.8 nM
- EC50, CellTiter-Blue viability (MDA-MB-436 [30]): 72.8 nM
- EC50, CellTiter-Blue viability (SK-BR-3 [31]): 30.9 nM
SMILES: CCC1=C[C@@H]2CN(C1)Cc1c([nH]c3ccccc13)[C@@](C(=O)OC)(c1cc3c(cc1OC)N(C)[C@H]1[C@@](O)(C(=O)OC)[C@H](OC(C)=O)[C@]4(CC)C=CCN5CC[C@]31[C@@H]54)C2 [Vinorelbine]
- EC50, CellTiter-Glo (HDQ-P1 [1]): 40.6 nM
- EC50, CellTiter-Glo (CAL-51 [2]): 118 nM
- EC50, CellTiter-Glo (MFM-223 [4]): 76.8 nM
- EC50, CellTiter-Glo (MCF-10A [5]): 27.3 nM
- EC50, CellTiter-Glo (DU-4475 [6]): 1510 nM
- EC50, CellTiter-Glo (CAL-148 [8]): 35.7 nM
- EC50, CellTiter-Glo (CAL-120 [9]): 24.1 nM
- EC50, CellTiter-Glo (Hs578T [12]): 69.7 nM
- EC50, CellTiter-Glo (CAL-85-1 [17]): 24.5 nM
- EC50, CellTiter-Blue viability (HDQ-P1 [19]): 74 nM
- EC50, CellTiter-Blue viability (CAL-51 [20]): 116 nM
- EC50, CellTiter-Blue viability (DU-4475 [21]): 304 nM
- EC50, CellTiter-Blue viability (CAL-85-1 [22]): 23.1 nM
- EC50, CellTiter-Blue viability (MFM-223 [24]): 44.4 nM
- EC50, CellTiter-Blue viability (Hs578T [28]): 39.8 nM
- EC50, CellTox Green (CAL-51 [33]): 45.2 nM
- EC50, CellTox Green (MFM-223 [35]): 5.52 nM
- EC50, CellTox Green (MCF-10A [36]): 13.7 nM
- EC50, CellTox Green (HCC1599 [46]): 356 nM
- EC50, CellTox Green (CAL-148 [38]): 42.5 nM
- EC50, CellTox Green (CAL-120 [39]): 1500 nM
- EC50, CellTox Green (BT-474 [40]): 85.9 nM
- EC50, CellTox Green (MDA-MB-468 [47]): 3510 nM
- EC50, CellTox Green (Hs578T [41]): 95.4 nM
- EC50, CellTox Green (BT-549 [42]): 492 nM
- EC50, CellTox Green (MDA-MB-436 [48]): 273 nM
- EC50, CellTox Green (MDA-MB-231 [44]): 263 nM
- EC50, CellTox Green (CAL-85-1 [45]): 23.2 nM
